Measured values published in publication PMC10826971, “Evaluating protein cross-linking as a therapeutic strategy to stabilize SOD1 variants in a mouse model of familial ALS” (PLOS Biology, 2024).
Entries after “also recorded” stand apart in the source; their conditions may differ.

What was measured:
SOD1 variants [1] = target: T1, SOD1 variants (Homo sapiens, UniProt P00441, H47R); experiment: Plate-based and gel-based SOD1 enzymatic activity assays (results in words); format: biochemical; settings: plate-based and gel-based assays
T1 construct: made in house; host or cells: EGy118ΔSOD1 yeast, YEp351 expression vector
Procedure: (§1) Enzymatic activity of SOD1 variants were assessed using a gel-based assay with riboflavin and nitroblue tetrazolium (NBT) as previously described. […] The samples were mixed with native sample buffer (Bio-Rad) in a 1:1 ratio and were loaded into each well to a 12% polyacrylamide gel (Bio-Rad). The gel was stained in dark using 50 mM potassium phosphate (pH 7.8), 0.13 mg/mL of NBT, and 0.1 mg/mL of riboflavin for 45 min. The gel was exposed to light for with 1 μL/mL of N,N,N^′,N^′-tetramethylethylenediamine (TEMED) for 2 min. SOD1 activity can be seen as colorless bands as the SOD1 scavenges the superoxide that inhibits insoluble blue color formazan formation.
(§2) All samples were prepared as described in gel-based enzymatic activity assay section and were (10 μL) mixed with 160 μL of solution A (6,000 units/mL catalase, 10 mM hypoxanthine, and 5 mM XTT) and 160 μL of solution B (xanthine oxidase 16 mg/mL) in a flat-bottom 96-well plate and was monitored for absorbance at 490 nm for 30 min. All samples were analyzed in technical triplicate using slope function in Microsoft Excel.

SOD1 variants [2] = experiment: as above; format: biochemical, human
Procedure: as §1, §2

B6 G93A mice = experiment: Survival study, congenic B6 G93A/YFP mice, S-XL6 50 mg/kg SC on weekdays from day 108; format: in vivo, mouse; set-up: Dosed remained: unit not given here
Excerpt: Two fALS lines were used to assess survival in genetic backgrounds with different disease severity. […] Dose and dose regimen were estimated from the blood PK/PD profile and BBB penetration described above. A subcutaneous (SC) route of administration was chosen because in our hands it results in more precise delivery. […] In both studies, mice were gender and littermate matched and non ALS-related deaths were excluded. We are currently developing the methods necessary for quantifying copy number and cannot rule out reduced SOD1 expression as having contributed to the survival benefit in treated B6 G93A mice.
The first line was derived by crossing (over >10 generations) congenic fALS “B6 G93A mice” (B6.Cg-Tg(SOD1*G93A)1Gur/J, Stock No. 004435, The Jackson Laboratory, Bar Harbor, Maine, USA) with “YFP-16 mice” [50] (B6.Cg-Tg(Thy1-YFP)16Jrs/J, Stock No. 003709, The Jackson Laboratory, Bar Harbor, Maine, USA). This line maintains the C57BL/6J genetic background and expresses YFP in motor and sensory neurons to enable cellular-level molecular profiling in future studies. The second line is the standard “Hybrid B6SJL G93A mice” (B6SJL-Tg(SOD1*G93A)1Gur/J Stock No. 002726, The Jackson Laboratory, Bar Harbor, Maine, USA). Methods for survival studies have been described and followed the conventions for optimal trial design with fALS mice. Mice were tested for difference in: (1) disease onset (at least a 20% decrease in grip strength and open-field motor performance, which we expect to correlate with change in weight); (2) disease end-stage (disease score, e.g., loss of righting reflex); and (3) weight. The hybrid line was additionally tested for differences in forelimb and hindlimb grip strength.

T1 sequence (P00441 2-154 H47R): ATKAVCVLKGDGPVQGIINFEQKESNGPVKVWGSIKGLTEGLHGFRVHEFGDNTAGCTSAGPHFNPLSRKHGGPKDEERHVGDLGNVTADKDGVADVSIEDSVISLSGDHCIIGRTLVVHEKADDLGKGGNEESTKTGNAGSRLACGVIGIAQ

`[O-][S+]1CCCCS1` (stereo not shown) [S-XL6, 1,2-dithiane-1-oxide] was tested, and the “enzymatic activity of SOD1^H46R after cross-linking” value (SOD1 variants [1]) was “No change in activity; also recorded: did not affect”, the Enzymatic activity (SOD1 variants [2]; cross-linked fALS SOD1 variants, summary table) was “Activity of cross-linked quaternary structures of fALS SOD1 variants are more comparable to uncross-linked wild-type SOD1” and the “enzymatic activity of SOD1^A4V, SOD1^G93A and SOD1^G85R after cross-linking” value (SOD1 variants [2]; plate-based and gel-based assays) was “levels comparable to that of wild-type SOD1; also recorded: increased to that of wild-type SOD1”. For the same compound, the survival benefit (B6 G93A mice; 50 mg/kg SC from day 108) was “modest survival benefit; also recorded: modest survival improvement”, the “clinical signs immediately after dosing” value (B6 G93A mice; SC dosing) was “lethargy and shaking that subsided after 20 min” and the Dosed remained (B6 G93A mice; day 0) was 100. For the same compound, the Dosed remained (B6 G93A mice; day 125) was 100, the Dosed remained (B6 G93A mice; day 125.999) was 100 and the Dosed remained (B6 G93A mice; day 127.999) was 100. For the same compound, the Dosed remained (B6 G93A mice; day 128) was 100, the Dosed remained (B6 G93A mice; day 128.999) was 100 and the Dosed remained (B6 G93A mice; day 129) was 100. The Dosed remained (B6 G93A mice; day 129.999) was 100, the Dosed remained (B6 G93A mice; day 130) was 100 and the Dosed remained (B6 G93A mice; day 130.999) was 100. The Dosed remained (B6 G93A mice; day 131) was 100, the Dosed remained (B6 G93A mice; day 131.999) was 100 and the Dosed remained (B6 G93A mice; day 132) was 100. For the same compound, the Dosed remained (B6 G93A mice; day 132.999) was 100, the Dosed remained (B6 G93A mice; day 133) was 100 and the Dosed remained (B6 G93A mice; day 133.999) was 100. It also gave a Dosed remained (B6 G93A mice; day 134) of 100, a Dosed remained (B6 G93A mice; day 134.999) of 100 and a Dosed remained (B6 G93A mice; day 135) of 100. It also gave a Dosed remained (B6 G93A mice; day 135.999) of 100, a Dosed remained (B6 G93A mice; day 136) of 100 and a Dosed remained (B6 G93A mice; day 136.999) of 100. It also gave a Dosed remained (B6 G93A mice; day 137) of 100, a Dosed remained (B6 G93A mice; day 137.999) of 100 and a Dosed remained (B6 G93A mice; day 138) of 100. It also gave a Dosed remained (B6 G93A mice; day 138.999) of 100, a Dosed remained (B6 G93A mice; day 139) of 100 and a Dosed remained (B6 G93A mice; day 139.999) of 100. The Dosed remained (B6 G93A mice; day 140) was 100, the Dosed remained (B6 G93A mice; day 140.999) was 100 and the Dosed remained (B6 G93A mice; day 141) was 100. For the same compound, the Dosed remained (B6 G93A mice; day 141.999) was 100, the Dosed remained (B6 G93A mice; day 142) was 100 and the Dosed remained (B6 G93A mice; day 142.999) was 100. The Dosed remained (B6 G93A mice; day 143) was 100, the Dosed remained (B6 G93A mice; day 143.999) was 100 and the Dosed remained (B6 G93A mice; day 144) was 100. It also gave a Dosed remained (B6 G93A mice; day 144.999) of 100, a Dosed remained (B6 G93A mice; day 145) of 100 and a Dosed remained (B6 G93A mice; day 145.999) of 100. For the same compound, the Dosed remained (B6 G93A mice; day 146) was 100, the Dosed remained (B6 G93A mice; day 146.999) was 100 and the Dosed remained (B6 G93A mice; day 147) was 100. For the same compound, the Dosed remained (B6 G93A mice; day 147.999) was 100, the Dosed remained (B6 G93A mice; day 148) was 100 and the Dosed remained (B6 G93A mice; day 148.999) was 100. For the same compound, the Dosed remained (B6 G93A mice; day 149) was 100, the Dosed remained (B6 G93A mice; day 149.999) was 100 and the Dosed remained (B6 G93A mice; day 150) was 100. It also gave a Dosed remained (B6 G93A mice; day 150.999) of 100, a Dosed remained (B6 G93A mice; day 151) of 100 and a Dosed remained (B6 G93A mice; day 151.999) of 100. It also gave a Dosed remained (B6 G93A mice; day 152) of 100, a Dosed remained (B6 G93A mice; day 152.999) of 100 and a Dosed remained (B6 G93A mice; day 153) of 100. For the same compound, the Dosed remained (B6 G93A mice; day 153.999) was 100, the Dosed remained (B6 G93A mice; day 154) was 100 and the Dosed remained (B6 G93A mice; day 154.999) was 100. The Dosed remained (B6 G93A mice; day 155) was 100, the Dosed remained (B6 G93A mice; day 155.999) was 100 and the Dosed remained (B6 G93A mice; day 156) was 100. For the same compound, the Dosed remained (B6 G93A mice; day 156.999) was 100, the Dosed remained (B6 G93A mice; day 157) was 70 and the Dosed remained (B6 G93A mice; day 172.999) was 30. It also gave a Dosed remained (B6 G93A mice; day 173) of 30, a Dosed remained (B6 G93A mice; day 173.999) of 30 and a Dosed remained (B6 G93A mice; day 174) of 30. The Dosed remained (B6 G93A mice; day 174.999) was 30, the Dosed remained (B6 G93A mice; day 175) was 30 and the Dosed remained (B6 G93A mice; day 175.999) was 30. For the same compound, the Dosed remained (B6 G93A mice; day 176) was 30, the Dosed remained (B6 G93A mice; day 176.999) was 30 and the Dosed remained (B6 G93A mice; day 177) was 30. It also gave a Dosed remained (B6 G93A mice; day 177.999) of 30, a Dosed remained (B6 G93A mice; day 178) of 20 and a Dosed remained (B6 G93A mice; day 178.999) of 20. It also gave a Dosed remained (B6 G93A mice; day 179) of 20, a Dosed remained (B6 G93A mice; day 179.999) of 20 and a Dosed remained (B6 G93A mice; day 180) of 20. It also gave a Dosed remained (B6 G93A mice; day 180.999) of 20, a Dosed remained (B6 G93A mice; day 181) of 20 and a Dosed remained (B6 G93A mice; day 181.999) of 20. For the same compound, the Dosed remained (B6 G93A mice; day 182) was 20, the Dosed remained (B6 G93A mice; day 182.999) was 20 and the Dosed remained (B6 G93A mice; day 183) was 20. The Dosed remained (B6 G93A mice; day 183.999) was 20, the Dosed remained (B6 G93A mice; day 184) was 20 and the Dosed remained (B6 G93A mice; day 184.999) was 20. It also gave a Dosed remained (B6 G93A mice; day 185) of 10, a Dosed remained (B6 G93A mice; day 185.999) of 10 and a Dosed remained (B6 G93A mice; day 186) of 10. The Dosed remained (B6 G93A mice; day 186.999) was 10, the Dosed remained (B6 G93A mice; day 187) was 10 and the Dosed remained (B6 G93A mice; day 187.999) was 10. For the same compound, the Dosed remained (B6 G93A mice; day 188) was 10, the Dosed remained (B6 G93A mice; day 188.999) was 10 and the Dosed remained (B6 G93A mice; day 189) was 10. The Dosed remained (B6 G93A mice; day 189.999) was 10, the Dosed remained (B6 G93A mice; day 190) was 0 and the Dosed remained (B6 G93A mice; day 190.999) was 0. The survival (B6 G93A mice; dosed, mean +/− STD, control 153 +/− 15 days) was 169 ± 11 days.
